# US9751826B2, “4-vinyl-2-cyclopenten-1-one derivatives, the production thereof, and the use of same as an antibiotic agent” (Centre National de la Recherche Scientifique (CNRS), priority 2014, dated 2017)
# What was measured:
# Type in all cases: cell-based
# [1] = system: KB cancer cell line (carcinoma); assay: Cytotoxicity test on KB cancer cell line
# Description: (§1) Once purified, the molecule of the compound of formula (Ia) is redissolved in suitable solvents and at a suitable concentration, preferentially in dimethyl sulfoxide (DMSO) at a concentration of 10 mg/ml. This initial solution is then diluted according to the various biological tests to be performed. Two series of tests were carried out. Tests for cytotoxicity on a KB cancer cell line (carcinoma) and an equivalent line of non-cancerous MRC5 cells. The following table presents the percentage of inhibition of growth by the molecule of the compound of formula (Ia) at concentrations of 1 and 10 micromolar.
# MRC5 cells = assay: Cytotoxicity test on non-cancerous MRC5 cells
# Description: as §1
# [2] = system: Acinetobacter baumannii (ATCC 19606); assay: Antibiotic test, inhibition zone technique
# Description: (§2) Once purified, the molecule of the compound of formula (Ia) is redissolved in suitable solvents and at a suitable concentration, preferentially in dimethyl sulfoxide (DMSO) at a concentration of 10 mg/ml. This initial solution is then diluted according to the various biological tests to be performed. Two series of tests were carried out. The molecule of the compound of formula (Ia) was used in antibiotic tests, employing the inhibition zone technique, on various Gram-positive and Gram-negative bacteria, in the amount of 100 μg. In parallel, similar tests are carried out with control antibiotics in varying amounts depending on the antibiotic, either 10 μg or 30 μg.
# [3] = system: Bacillus subtilis (ATCC 6633); assay: Antibiotic test, inhibition zone technique
# Description: as §2
# [4] = system: Enterobacter cloacae (ATCC 13047); assay: Antibiotic test, inhibition zone technique
# Description: as §2
# [5] = system: Escherichia coli (ATCC 25922); assay: Antibiotic test, inhibition zone technique
# Description: as §2
# [6] = system: Klebsiella pneumoniae (ATCC 1001); assay: Antibiotic test, inhibition zone technique
# Description: as §2
# [7] = system: Micrococcus luteus (ATCC 10240); assay: Antibiotic test, inhibition zone technique
# Description: as §2
# [8] = system: Staphylococcus aureus (ATCC 25923); assay: Antibiotic test, inhibition zone technique
# Description: as §2
# [9] = system: Streptococcus pneumoniae (ATCC 49619); assay: Antibiotic test, inhibition zone technique
# Description: as §2
# [10] = system: various target pathogenic microorganisms; assay: Antibiotic activity at 1 to 100 μg (FIG. 7); conditions: amounts of 1 to 100 μg
# Description: The molecule of the compound of formula (Ia) was used in antibiotic tests, employing the inhibition zone technique, on various Gram-positive and Gram-negative bacteria, in the amount of 100 μg. In parallel, similar tests are carried out with control antibiotics in varying amounts depending on the antibiotic, either 10 μg or 30 μg.
# FIG. 7 illustrates the antibiotic activity of the compound of formula (Ia) on various target pathogenic microorganisms in amounts of 1 to 100 μg in comparison with chloramphenicol and gentamycin at 30 μg and 10 μg, respectively. […] Indeed, inhibition by 1 μg of the compound of formula (Ia) is equivalent to that obtained with 30 μg of chloramphenicol. The same observations and conclusions can be made for all the strains that are sensitive to the compound of formula (Ia) as shown in FIG. 7.
# [11] = system: Pseudomonas aeruginosa (ATCC 27853); assay: Antibiotic test, inhibition zone technique; conditions: 10 μg deposited
# Description: as §2
compound,measurement,setting,value
COC(=O)/C=C/[C@@]1(O)C=CC(=O)C1 [compound of formula (Ia)],cytotoxicity against tumor cells,[1]; 1 and 10 micromolar,no cytotoxicity is observed
same,inhibition at 10 µM,"[1]; Homo sapiens, KB cells, 10^−5 M, read-out: percentage of inhibition of growth",0%
same,inhibition at 1 µM,"[1]; Homo sapiens, KB cells, 10^−6 M, read-out: percentage of inhibition of growth",0%
same,cytotoxicity against healthy cells,MRC5 cells; 1 and 10 micromolar,no cytotoxicity is observed
same,inhibition at 10 µM,"MRC5 cells; Homo sapiens, 10^−5 M, read-out: percentage of inhibition of growth",2 ± 12%
same,inhibition at 1 µM,"MRC5 cells; Homo sapiens, 10^−6 M, read-out: percentage of inhibition of growth",1 ± 3%
same,Inhibition zone for 100 μg of the compound of formula (Ia),[2]; 100 μg deposited,3.2 cm
same,Inhibition zone for 100 μg of the compound of formula (Ia),[3]; 100 μg deposited,2.7 cm
same,Inhibition zone for 100 μg of the compound of formula (Ia),[4]; 100 μg deposited,1.2 cm
same,Inhibition zone for 100 μg of the compound of formula (Ia),[5]; 100 μg deposited,2.7 cm
same,amount giving inhibition equivalent to that of 30 μg of chloramphenicol,[5]; FIG. 7,1 µg
same,antibiotic activity compared with chloramphenicol,"[5]; FIG. 7, 1 to 100 μg vs chloramphenicol 30 μg",much higher activity than that of chloramphenicol
same,Inhibition zone for 100 μg of the compound of formula (Ia),[6]; 100 μg deposited,2.9 cm
same,Inhibition zone for 100 μg of the compound of formula (Ia),[7]; 100 μg deposited,3.2 cm
same,Inhibition zone for 100 μg of the compound of formula (Ia),[8]; 100 μg deposited,3.0 cm
same,Inhibition zone for 100 μg of the compound of formula (Ia),[9]; 100 μg deposited,2.0 cm
same,dose dependence of antibiotic activity,[10],dose-dependent
Penicillin [reference compound],Inhibition zone by the reference antibiotics,[9]; 30 μg deposited,3.5 cm
Gentamycin [reference compound],Inhibition zone by the reference antibiotics,[2]; 10 μg deposited,0.9 cm
same,Inhibition zone by the reference antibiotics,[3]; 10 μg deposited,1.2 cm
same,Inhibition zone by the reference antibiotics,[11],1.3 cm
same,Inhibition zone by the reference antibiotics,[8]; 10 μg deposited,1.2 cm
"O=C(N[C@H](CO)[C@H](O)c1ccc([N+](=O)[O-])cc1)C(Cl)Cl [Chloramphenicol, reference compound]",Inhibition zone by the reference antibiotics,[4]; 30 μg deposited,1.5 cm
same,Inhibition zone by the reference antibiotics,[5]; 30 μg deposited,1.0 cm
same,Inhibition zone by the reference antibiotics,[6]; 30 μg deposited,2.5 cm
same,Inhibition zone by the reference antibiotics,[7]; 30 μg deposited,3.2 cm
